Experimental data as given in US20250368666A1, “INDAZOLE COMPOUNDS” (TYRA BIOSCIENCES, INC., priority 2022, published 2025).

Assays:
[1] = target: T1, FGFR1 (Homo sapiens, UniProt P11362); assay: Kinase binding assay (kinase-tagged T7 phage, affinity beads, qPCR), Kd; conditions: read-out: FGFR1 (Kd nM)
T1 construct: made in house; host or cells: E. coli (BL21-derived), T7 phage
Outline: (§1)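 Competition binding of compounds against kinase-tagged T7 phage captured on immobilised biotinylated ligand beads; bead-bound kinase quantified by qPCR of eluates. 11-point 3-fold dilution, 0.9% DMSO final; Kd from Hill fit with slope fixed at −1.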

[2] = target: T2, FGFR2 (Homo sapiens, UniProt P21802); assay: as above; conditions: read-out: FGFR2 (Kd nM)
T2 construct: made in house; host or cells: E. coli (BL21-derived), T7 phage
Outline: as §1

[3] = target: T3, FGFR3 (Homo sapiens, UniProt P22607); assay: as above; conditions: read-out: FGFR3 (Kd nM)
T3 construct: made in house; host or cells: E. coli (BL21-derived), T7 phage
Outline: as §1

[4] = target: T4, FGFR3 (V555M) (Homo sapiens, UniProt P22607, V555M); assay: as above; conditions: V555M mutant; read-out: FGFR3 (V555M) (Kd nM)
T4 construct: made in house; host or cells: E. coli (BL21-derived), T7 phage
Outline: as §1

[5] = target: T5, FGFR4 (Homo sapiens, UniProt P22455); assay: as above; conditions: read-out: FGFR4 (Kd nM)
T5 construct: made in house; host or cells: E. coli (BL21-derived), T7 phage
Outline: as §1

[6] = test system: KATO-III cell line (FGFR2 amplification); assay: Cancer cell line cell viability assay (Cell Titer-Glo), 72 hr; assay type: cell-based; conditions: Homo sapiens, KATO III
Outline: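 Intracellular ATP was measured by Cell Titer-Glo 2.0 luminescence after cells were incubated with compound dilutions (top 3 μM, 4-fold, 9 doses). Values were expressed relative to DMSO-treated cells and IC50 was calculated from a variable-slope dose-response curve.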

[7] = test system: KG-1 cell line (FGFR 1-fusion); assay: as above; assay type: cell-based; conditions: Homo sapiens, KG-1, KG-1 cell line (FGFR1-fusion)
Outline: (§2)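 Cells were seeded at 5,000–20,000 per well, then exposed to a 9-point, 4-fold dilution series from 3 μM top concentration in triplicate at 37° C. Exposure was 120 h for MDA-MB-453 and HuH7 and 72 h for KG-1 and RT112/84. Viability was read as ATP by Cell Titer-Glo 2.0, expressed as % of DMSO control, and fitted by 4-parameter IC50.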

[8] = test system: RT112/84 cell line (FGFR3-fusion); assay: as above; assay type: cell-based; conditions: Homo sapiens, RT112/84, RT112/84 cell line (FGFR3-fusion)
Outline: as §2

[9] = test system: HuH7 cell line (FGF19 amplification); assay: Cancer cell line cell viability assay (Cell Titer-Glo), 120 hr; assay type: cell-based; conditions: Homo sapiens, Huh-7
Outline: as §2

T3 sequence (P22607 23-806): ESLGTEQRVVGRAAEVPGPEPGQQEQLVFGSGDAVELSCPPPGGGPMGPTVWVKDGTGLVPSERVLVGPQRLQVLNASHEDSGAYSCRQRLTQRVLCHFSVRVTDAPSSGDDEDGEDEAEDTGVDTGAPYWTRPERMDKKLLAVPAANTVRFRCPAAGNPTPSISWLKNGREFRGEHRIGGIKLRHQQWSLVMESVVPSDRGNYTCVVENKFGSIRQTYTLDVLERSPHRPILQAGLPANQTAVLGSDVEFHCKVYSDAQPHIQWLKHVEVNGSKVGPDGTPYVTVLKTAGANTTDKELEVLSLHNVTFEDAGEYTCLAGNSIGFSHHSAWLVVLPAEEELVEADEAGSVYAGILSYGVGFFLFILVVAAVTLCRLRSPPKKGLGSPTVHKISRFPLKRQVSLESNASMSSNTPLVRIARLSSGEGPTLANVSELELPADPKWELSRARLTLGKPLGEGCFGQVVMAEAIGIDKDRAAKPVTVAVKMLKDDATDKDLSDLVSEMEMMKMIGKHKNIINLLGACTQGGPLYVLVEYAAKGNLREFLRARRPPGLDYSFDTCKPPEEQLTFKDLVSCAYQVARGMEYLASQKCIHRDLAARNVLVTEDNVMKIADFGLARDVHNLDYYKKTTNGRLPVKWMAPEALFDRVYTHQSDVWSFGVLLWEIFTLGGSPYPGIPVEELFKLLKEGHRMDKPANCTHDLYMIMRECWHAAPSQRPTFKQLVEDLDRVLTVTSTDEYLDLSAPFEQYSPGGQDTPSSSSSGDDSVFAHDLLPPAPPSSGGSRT
T2 sequence (P21802 22-821): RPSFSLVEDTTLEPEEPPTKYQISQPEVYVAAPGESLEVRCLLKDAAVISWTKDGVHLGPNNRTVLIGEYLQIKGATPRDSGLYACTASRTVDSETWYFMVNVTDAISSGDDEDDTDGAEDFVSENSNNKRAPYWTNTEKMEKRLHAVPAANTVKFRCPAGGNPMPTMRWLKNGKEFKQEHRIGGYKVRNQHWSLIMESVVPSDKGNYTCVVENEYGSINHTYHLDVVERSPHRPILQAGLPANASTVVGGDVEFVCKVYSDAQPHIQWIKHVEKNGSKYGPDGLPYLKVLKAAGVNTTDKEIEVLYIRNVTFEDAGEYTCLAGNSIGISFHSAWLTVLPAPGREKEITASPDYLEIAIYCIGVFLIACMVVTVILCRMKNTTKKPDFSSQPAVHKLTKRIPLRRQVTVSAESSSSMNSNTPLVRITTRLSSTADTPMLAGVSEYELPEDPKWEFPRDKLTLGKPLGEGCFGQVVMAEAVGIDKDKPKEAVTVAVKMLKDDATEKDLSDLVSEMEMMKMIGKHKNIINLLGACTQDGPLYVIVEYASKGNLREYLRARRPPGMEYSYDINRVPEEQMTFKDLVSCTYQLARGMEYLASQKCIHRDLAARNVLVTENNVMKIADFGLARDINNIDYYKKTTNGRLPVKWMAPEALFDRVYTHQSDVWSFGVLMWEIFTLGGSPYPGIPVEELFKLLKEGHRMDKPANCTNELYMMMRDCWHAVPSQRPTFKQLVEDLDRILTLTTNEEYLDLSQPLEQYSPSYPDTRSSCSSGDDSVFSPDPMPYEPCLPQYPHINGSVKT
T5 sequence (P22455 22-802): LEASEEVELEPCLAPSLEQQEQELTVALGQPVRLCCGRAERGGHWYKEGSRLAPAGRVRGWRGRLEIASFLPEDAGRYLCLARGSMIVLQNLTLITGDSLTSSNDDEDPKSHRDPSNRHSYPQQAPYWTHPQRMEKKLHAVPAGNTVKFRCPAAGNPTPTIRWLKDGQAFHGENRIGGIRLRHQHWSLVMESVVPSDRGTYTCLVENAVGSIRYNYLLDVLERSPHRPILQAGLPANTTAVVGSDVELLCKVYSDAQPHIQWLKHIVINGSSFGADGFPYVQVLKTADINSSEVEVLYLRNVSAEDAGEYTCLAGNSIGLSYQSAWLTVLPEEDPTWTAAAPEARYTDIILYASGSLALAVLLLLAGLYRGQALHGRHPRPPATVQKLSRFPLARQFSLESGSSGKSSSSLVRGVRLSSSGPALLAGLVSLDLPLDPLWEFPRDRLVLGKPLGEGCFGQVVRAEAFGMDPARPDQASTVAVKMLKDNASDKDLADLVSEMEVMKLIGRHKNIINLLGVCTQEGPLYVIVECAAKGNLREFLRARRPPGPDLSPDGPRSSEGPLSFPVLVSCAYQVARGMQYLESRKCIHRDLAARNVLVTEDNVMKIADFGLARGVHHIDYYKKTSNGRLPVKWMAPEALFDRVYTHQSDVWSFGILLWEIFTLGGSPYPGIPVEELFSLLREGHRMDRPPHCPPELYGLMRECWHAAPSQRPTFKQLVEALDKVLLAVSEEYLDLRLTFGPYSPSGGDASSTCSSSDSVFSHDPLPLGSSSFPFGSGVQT
T1 sequence (P11362 22-822): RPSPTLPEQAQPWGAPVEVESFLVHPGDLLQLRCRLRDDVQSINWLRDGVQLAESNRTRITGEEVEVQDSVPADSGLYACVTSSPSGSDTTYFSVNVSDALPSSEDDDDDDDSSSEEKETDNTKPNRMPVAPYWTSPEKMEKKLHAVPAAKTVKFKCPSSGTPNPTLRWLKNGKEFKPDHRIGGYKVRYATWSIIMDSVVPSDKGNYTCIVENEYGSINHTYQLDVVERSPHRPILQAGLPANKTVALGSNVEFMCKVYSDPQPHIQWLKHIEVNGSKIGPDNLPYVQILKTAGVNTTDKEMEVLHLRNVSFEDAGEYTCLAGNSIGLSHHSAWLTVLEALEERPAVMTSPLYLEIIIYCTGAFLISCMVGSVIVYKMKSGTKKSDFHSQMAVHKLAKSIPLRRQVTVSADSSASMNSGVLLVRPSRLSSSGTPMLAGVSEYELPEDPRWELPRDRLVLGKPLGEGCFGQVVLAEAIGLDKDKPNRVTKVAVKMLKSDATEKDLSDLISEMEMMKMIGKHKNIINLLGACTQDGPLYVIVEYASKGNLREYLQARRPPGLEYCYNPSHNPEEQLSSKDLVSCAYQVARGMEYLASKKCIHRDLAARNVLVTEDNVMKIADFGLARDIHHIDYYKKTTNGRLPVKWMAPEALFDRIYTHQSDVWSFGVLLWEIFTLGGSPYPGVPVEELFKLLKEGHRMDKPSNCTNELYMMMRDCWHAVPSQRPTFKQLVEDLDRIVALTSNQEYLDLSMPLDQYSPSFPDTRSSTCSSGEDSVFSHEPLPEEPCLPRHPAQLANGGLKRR
T4 sequence (P22607 23-806 V555M): as the sequence (P22607 23-806) above, with V533M counted along it

| Structure (SMILES) | Kd [1] | Kd [2] | Kd [3] | Kd [4] | Kd [5] | IC50 [6] | IC50 [7] | IC50 [8] | IC50 [9] |
| --- | --- | --- | --- | --- | --- | --- | --- | --- | --- |
| C[C@@H](Oc1ccc2[nH]nc(-c3cnc(N4CC(C)(N5CCC5)C4)c(C#N)c3)c2c1)c1c(Cl)cncc1Cl [Example 28, (R)-5-(5-(1-(3,5-dichloropyridin-4-yl)ethoxy)-1H-indazol-3-yl)-2-(3′-methyl-[1,3′-biazetidin]-1′-yl)nicotinonitrile] | 1 to 50 nM | 1 to 50 nM | 1 to 50 nM | 1 to 50 nM | 1 to 50 nM | 50 to 200 nM | 50 to 200 nM | 0.1 to 50 nM | 0.1 to 50 nM |
| C[C@@H](Oc1ccc2[nH]nc(-c3cnc(N4CC(C)(N[C@@H]5CCOC5)C4)c(C#N)c3)c2c1)c1c(Cl)cncc1Cl [Example 33, 5-(5-((R)-1-(3,5-dichloropyridin-4-yl)ethoxy)-1H-indazol-3-yl)-2-(3-methyl-3-(((R)-tetrahydrofuran-3-yl)amino)azetidin-1-yl)nicotinonitrile] | 50 to 300 nM | 1 to 50 nM | 1 to 50 nM | 1 to 50 nM | 1 to 50 nM | 50 to 200 nM | 200 to 1000 nM | 50 to 200 nM | 0.1 to 50 nM |
| C[C@@H](Oc1ccc2[nH]nc(-c3cnc(N4CC(C)(N5CCOCC5)C4)c(C#N)c3)c2c1)c1c(Cl)cncc1Cl [Example 34, 5-[5-[(1R)-1-(3,5-dichloro-4-pyridyl)ethoxy]-1H-indazol-3-yl]-2-(3-methyl-3-morpholino-azetidin-1-yl)pyridine-3-carbonitrile] | 50 to 300 nM | 50 to 300 nM | 1 to 50 nM | 1 to 50 nM | 1 to 50 nM | 200 to 1000 nM | 200 to 1000 nM | 50 to 200 nM | 0.1 to 50 nM |
| COCCNC1(C)CN(c2ncc(-c3n[nH]c4cc(OC)c(O[C@H](C)c5c(Cl)cncc5Cl)cc34)cc2C#N)C1 [Example 37, 5-[5-[(1R)-1-(3,5-dichloro-4-pyridyl)ethoxy]-6-methoxy-1H-indazol-3-yl]-2-[3-(2-methoxyethylamino)-3-methyl-azetidin-1-yl]pyridine-3-carbonitrile] | 1 to 50 nM | 1 to 50 nM | 1 to 50 nM | 1 to 50 nM | 1 to 50 nM | 50 to 200 nM | 50 to 200 nM | 0.1 to 50 nM | 0.1 to 50 nM |
| COc1cc2[nH]nc(-c3cnc(N4CC(C)(NCCC(F)F)C4)c(C#N)c3)c2cc1O[C@H](C)c1c(Cl)cncc1Cl [Example 41, 5-[5-[(1R)-1-(3,5-dichloro-4-pyridyl)ethoxy]-6-methoxy-1H-indazol-3-yl]-2-[3-(3,3-difluoropropylamino)-3-methyl-azetidin-1-yl]pyridine-3-carbonitrile] | 1 to 50 nM | 1 to 50 nM | 1 to 50 nM | 1 to 50 nM | 1 to 50 nM | 50 to 200 nM | 50 to 200 nM | 0.1 to 50 nM | 0.1 to 50 nM |
| COc1cc2[nH]nc(-c3cnc(N4CC(C)(NCC(F)F)C4)c(C#N)c3)c2cc1O[C@H](C)c1c(Cl)cncc1Cl [Example 42, 5-[5-[(1R)-1-(3,5-dichloro-4-pyridyl)ethoxy]-6-methoxy-1H-indazol-3-yl]-2-[3-(2,2-difluoroethylamino)-3-methyl-azetidin-1-yl]pyridine-3-carbonitrile] | 1 to 50 nM | 1 to 50 nM | 1 to 50 nM | 1 to 50 nM | 1 to 50 nM | 50 to 200 nM | 50 to 200 nM | 0.1 to 50 nM | 0.1 to 50 nM |
| C[C@@H](Oc1ccc2[nH]nc(-c3cnc(N4CC(C)(N5CCOCC5)C4)nc3)c2c1)c1c(Cl)cncc1Cl [Example 43, (R)-4-(1-(5-(5-(1-(3,5-dichloropyridin-4-yl)ethoxy)-1H-indazol-3-yl)pyrimidin-2-yl)-3-methylazetidin-3-yl)morpholine] | 1 to 50 nM | 1 to 50 nM | 1 to 50 nM | 1 to 50 nM | 1 to 50 nM | 50 to 200 nM | 50 to 200 nM | 0.1 to 50 nM | 0.1 to 50 nM |
| C[C@@H](Oc1ccc2[nH]nc(-c3cnc(N4CC(C)(N(C)C)C4)nc3)c2c1)c1c(Cl)cncc1Cl [Example 44, (R)-1-(5-(5-(1-(3,5-dichloropyridin-4-yl)ethoxy)-1H-indazol-3-yl)pyrimidin-2-yl)-N,N,3-trimethylazetidin-3-amine] | 1 to 50 nM | 1 to 50 nM | 1 to 50 nM | 1 to 50 nM | 1 to 50 nM | 50 to 200 nM | 50 to 200 nM | 0.1 to 50 nM | 0.1 to 50 nM |
| COc1cc2[nH]nc(-c3cnc(N4CC(C)(NCCO)C4)c(C#N)c3)c2cc1O[C@H](C)c1c(Cl)cncc1Cl [Example 47, 5-[5-[(1R)-1-(3,5-dichloro-4-pyridyl)ethoxy]-6-methoxy-1H-indazol-3-yl]-2-[3-(2-hydroxyethylamino)-3-methyl-azetidin-1-yl]pyridine-3-carbonitrile] | 1 to 50 nM | 1 to 50 nM | 1 to 50 nM | 1 to 50 nM | 1 to 50 nM | 50 to 200 nM | 200 to 1000 nM | 50 to 200 nM | 0.1 to 50 nM |
| CC(C)NC1(C)CN(c2ncc(-c3n[nH]c4ccc(O[C@H](C)c5c(Cl)cncc5Cl)cc34)cc2C#N)C1 [Example 48, (R)-5-(5-(1-(3,5-dichloropyridin-4-yl)ethoxy)-1H-indazol-3-yl)-2-(3-(isopropylamino)-3-methylazetidin-1-yl)nicotinonitrile] | 1 to 50 nM | 1 to 50 nM | 1 to 50 nM | 1 to 50 nM | 1 to 50 nM | 200 to 1000 nM | 200 to 1000 nM | 50 to 200 nM | 0.1 to 50 nM |
| COc1cc2[nH]nc(-c3cnc(N4CC(C)(CN(C)C)C4)c(C#N)c3)c2cc1O[C@H](C)c1c(Cl)cncc1Cl [Example 49, (R)-5-(5-(1-(3,5-dichloropyridin-4-yl)ethoxy)-6-methoxy-1H-indazol-3-yl)-2-(3-((dimethylamino)methyl)-3-methylazetidin-1-yl)nicotinonitrile] | 1 to 50 nM | 1 to 50 nM | 1 to 50 nM | 1 to 50 nM | 1 to 50 nM | 0.1 to 50 nM | 0.1 to 50 nM | 0.1 to 50 nM | 0.1 to 50 nM |
| COc1cc2[nH]nc(-c3cnc(N4CC(C)(CNC(C)C)C4)c(C#N)c3)c2cc1O[C@H](C)c1c(Cl)cncc1Cl [Example 50, (R)-5-(5-(1-(3,5-dichloropyridin-4-yl)ethoxy)-6-methoxy-1H-indazol-3-yl)-2-(3-((isopropylamino)methyl)-3-methylazetidin-1-yl)nicotinonitrile] | 1 to 50 nM | 1 to 50 nM | 1 to 50 nM | 1 to 50 nM | 1 to 50 nM | 0.1 to 50 nM | 0.1 to 50 nM | 0.1 to 50 nM | 0.1 to 50 nM |
| COc1cc2[nH]nc(-c3cnc(N4CC(C)(N(C)C)C4)nc3)c2cc1O[C@H](C)c1c(Cl)cncc1Cl [Example 51, (R)-1-(5-(5-(1-(3,5-dichloropyridin-4-yl)ethoxy)-6-methoxy-1H-indazol-3-yl)pyrimidin-2-yl)-N,N,3-trimethylazetidin-3-amine] | 1 to 50 nM | 1 to 50 nM | 1 to 50 nM | 1 to 50 nM | 1 to 50 nM | 0.1 to 50 nM | 0.1 to 50 nM | 0.1 to 50 nM | 0.1 to 50 nM |
